Measured values taken from patent US11530265B2, “Multipartite signaling proteins and uses thereof” (2seventy bio, Inc., priority 2013, dated 2022).
Read-outs that look alike come from different tables or passages of the source.

What was measured:
K562-CD19 target cells = experiment: Cytotoxicity of IVT-mRNA electroporated T cells encoding DARIC components against K562-CD19/K562-CD20 mixture (flow cytometry); type: cell-based, human
Description: Recombinant T cells expressing the two DARIC components were incubated with K562 target cells (a human myeloid leukemia cell line), which were modified to express either CD19 or CD20 antigen, to examine target cell lysis. Briefly, T cells were co-incubated with a 50:50 mixture of K562-CD19 and K562-CD20 target cell lines, at 3:1 or 10:1 T cell to target cell ratios. […] The relative percentage of each of the target cell lines was monitored by flow cytometry staining for the CD19 and CD20 antigens to evaluate cell lysis (see FIG. 3).
Four samples of primary human T cells were prepared by electroporation with IVT-mRNA encoding (i) an extensively validated single-chain chimeric antigen receptor (CAR) (CD19-CAR, SEQ ID NO.:14, positive control); (ii) the DARIC signaling component only (DSC, SEQ ID NO.:16, negative control); iii) the DARIC binding component only (DBC-CD19, SEQ ID NO.:2, negative control); and (iv) both DARIC binding and signaling components (DSC, SEQ ID NO.:16 plus DBC-CD19, SEQ ID NO.:2). The relative percentages of each of the target cell lines were monitored by flow cytometry staining for the CD19 and CD20 antigens (FIG. 3A).
The percent specific cytotoxicity was calculated for each condition as the percentage change relative the input K562-CD19:K562-CD20 ratio.

K562-CD19 cells = conditions: for cytotoxicity responses on titration of bridging factor: DARIC expressing T cells, broad range of drug concentrations
Description: The transduced T cells were then co-incubated with about a 50:50 mixture of the K562 target cells expressing either CD19 (K562-CD19) or CD20 (K562-CD20) to evaluate antigen-specific cytotoxicity. […] The DARIC antigen binding component includes a CD19 antigen binding scFv domain and a FKBP12 multimerization domain, which was linked to a mCherry fluorescent protein.
A series of additional DARIC molecules, in which the antigen binding component was maintained on the T cell surface rather than released into the extracellular space, were tested (see, e.g., FIG. 1I). Several protein regions and transmembrane domains were used to anchor the binding domain to the T cell surface (SEQ ID NOS.:50, 53, 56, 59), each altering the spacing or steric parameters governing multimerization of the DARIC binding and signaling components.
Deactivation of the DARIC system by the addition of a pharmacological agent that competes for binding to one of the multimerization domains was tested. Primary human T cells expressing either a traditional CD19 targeting CAR or primary human T cells expressing the CD19 targeting DARIC components (SEQ ID NO.:66) were co-incubated with 50:50 mixtures of K562-CD19 and K562-CD20 cells.

[1] = tested on: CD19 expressing K562 target cells; experiment: Cytokine secretion of T cells encoding DARIC components co-incubated with K562 target cells (Cytokine Bead Array); type: cell-based, human
Description: Recombinant T cells expressing the two DARIC components were incubated with K562 target cells (a human myeloid leukemia cell line), which were modified to express either CD19 or CD20 antigen, to examine cytokine expression. […] Supernatants were isolated for analysis of cytokine production (see FIG. 4).
Two samples of primary human T cells were isolated, expanded, and then prepared by electroporation with IVT-mRNA encoding either (i) the validated single-chain CAR (CD19-CAR, SEQ ID NO.:[…], positive control); or (ii) both DARIC binding and signaling components (DSC, SEQ ID NO.:16 plus DBC-CD19, SEQ ID NO.:2). […] The supernatants were then collected and assayed for analyte concentrations using cytokine capture antibody-labeled beads (Becton Dickenson Cytokine Bead Array, human Th1/Th2 kit). Comparison with recombinant protein standards enabled calculation of absolute concentrations of each of the six cytokines encompassed by the bead array.

K562-CD123 target cells = experiment: Antigen-specific cytotoxicity of lentivirus-transduced T cells against 50:50 K562-CD19/K562-CD123; type: cell-based, human; conditions: sample containing rapamycin; T:K562 5:1
Source text: The DARIC system was extended to an additional model antigen to show the broad applicability of artificial cells expressing drug regulated multipartite receptors templated herein. K562 target cell lines were generated to express the CD123 antigen by sub-cloning this antigen into a lentiviral vector comprising a puromycin selection cassette (SEQ ID NO.:74), lentiviral particles were produced, and K562 cells were infected and selected with puromycin.

[2] = T cells expressing DARIC components (DSC plus DBC-CD19), 500 nM AP21967, 1:1

Compound: SS-FRB(T2098L)-TM-41BB-CD3z mRNA [DARIC signaling component]
- specific cytotoxicity (K562-CD19 target cells; primary human T cells electroporated with IVT-mRNA, 50:50 K562-CD19/K562-CD20, 3:1 or 10:1 T cell to target cell ratio): no significant cytotoxicity

Compound: CO[C@H]1C[C@@H]2CC[C@@H](C)[C@@](O)(O2)C(=O)C(=O)N2CCCC[C@H]2C(=O)O[C@H]([C@H](C)C[C@@H]2CC[C@@H](O)[C@H](OC)C2)CC(=O)[C@H](C)/C=C(\C)[C@@H](O)[C@@H](OC)C(=O)[C@H](C)C[C@H](C)/C=C/C=C/C=C/1C [rapamycin]
- cytotoxicity responses on titration of bridging factor (K562-CD19 cells; T:K562 5:1): maintained to sub-nanomolar drug concentrations
- cytotoxicity response (K562-CD19 cells; mixed T cell populations, one expressing DARIC antigen binding component, the other DARIC signaling component): cytotoxicity response against K562-CD19 cells
- antigen specific cytotoxicity (K562-CD19 cells; swapped DARIC: binding component DmrC, signaling component DmrA (SEQ ID NOs.:12, 31), samples containing rapamycin): Antigen specific cytotoxicity was observed

Compound: C=CC[C@@H]1/C=C(\C)C[C@H](C)C[C@H](OC)[C@H]2O[C@@](O)(C(=O)C(=O)N3CCCC[C@H]3C(=O)O[C@H](/C(C)=C/[C@@H]3CC[C@@H](O)[C@H](OC)C3)[C@H](C)[C@@H](O)CC1=O)[C@H](C)C[C@@H]2OC [FK506]
- change in antigen specific cytotoxicity on addition of anti-bridging factor (K562-CD19 cells; CD19 targeting CAR T cells): minimal reduction
- change in antigen specific cytotoxicity on addition of anti-bridging factor (K562-CD19 cells; CD19 targeting DARIC T cells with rapamycin): marked reduction

Compound: both DARIC components: T cells expressing both DARIC binding and signaling components
- cytokine production ([1]; T cells expressing DARIC components, absence of bridging factor AP21967): no significant cytokine production
- specific cytotoxicity (K562-CD19 target cells; T cells expressing both DARIC components, without addition of AP21967): no significant cytotoxicity

Compound: CO[C@H]1[C@@H](O)[C@H](C)C[C@H](C)/C=C/C=C/C=C(\C)[C@@H](c2c[nH]c3c(C)cccc23)C[C@@H]2CC[C@@H](C)[C@@](O)(O2)C(=O)C(=O)N2CCCC[C@H]2C(=O)O[C@H]([C@H](C)C[C@@H]2CC[C@@H](O)[C@H](OC)C2)C[C@H](O)[C@H](C)/C=C(\C)[C@H]1O [AP21967, C-16-(S)-7-methylindolerapamycin]
- elimination of CD19 expressing K562 cells (K562-CD19 cells; T cells with DARIC signaling component FRB (2021-2113) T2098L, T:K562 5:1, rapamycin 10 nM or AP21967 100 nM): elimination of the CD19 expressing K562 cells
- elimination of K562-CD19 cells (K562-CD19 cells; T cells with DARIC signaling component FRB dimerization domain, T:K562 5:1, rapamycin 10 nM or AP21967 100 nM): no effect on cell survival
- IFNγ production [1, 2]: equivalent, or superior, to the single chain CD19-CAR positive control
- IL-2 production [1, 2]: equivalent, or superior, to the single chain CD19-CAR positive control
- specific cytotoxicity (K562-CD19 target cells; T cells expressing both DARIC components (DSC plus DBC-CD19), 500 nM AP21967): substantial specific cytoxicity

Compound: CO[C@H]1C[C@@H]2CC[C@@H](C)[C@@](O)(O2)C(=O)C(=O)N2CCCC[C@H]2C(=O)O[C@H]([C@H](C)C[C@@H]2CC[C@@H](OCCO)[C@H](OC)C2)CC(=O)[C@H](C)/C=C(\C)[C@@H](O)[C@@H](OC)C(=O)[C@H](C)C[C@H](C)/C=C/C=C/C=C/1C [everolimus]
- cytotoxicity responses on titration of bridging factor (K562-CD19 cells; T:K562 5:1): maintained to sub-nanomolar drug concentrations

Compound: SS-DmrC-CD8TM-41BB-CD3z-P2A-SS-CD123scFv-DmrA-CD4TM protein [CD123 DARIC]
- cytotoxicity (K562-CD123 target cells): Cytotoxicity was observed
